Experimental data as given in patent publication US4022791A (priority 1975, dated 1977).

Experiments:
mice [1] = experiment: Toxicity and adverse effects noted (comments), mice; assay type: in vivo, mouse; conditions: at 32 mg./kg.
Source text: (§1) The tabulated test results include comments regarding toxicity and adverse effects noted with certain compounds.

mice [2] = conditions: mouse, in vivo, ip
mice [3] = experiment: animal or person; assay type: in vivo, mouse; conditions: ip
mice [4] = conditions: mouse, in vivo, ip; remark: listed apart in the source
Rats [5] = system: Rats; set-up: Rat Jump .5 hr (current at which the animal first jumps) / Rat Jump .5 hr, second value printed in parentheses / Rat Jump 2 hr (current at which the animal first jumps): unit not given here; conditions: in vivo, ip
Rats [6] = experiment: Toxicity and adverse effects noted (comments), rats; assay type: in vivo, rat; conditions: for loss of righting reflex (rats): at 100 mg./kg.
Source text: as §1

[7] = Analgesic and tranquilizing effectiveness, summary of Examples 10 and 11; assay type: in vivo
[8] = Toxicity and adverse effects noted (comments), species not stated; assay type: in vivo; conditions: at 100 mg./kg.
Source text: as §1

Rats [9] = conditions: rat, in vivo, ip

Compound	mice died (mice [1])	Tail Flick 2 hr (percentage of analgesia response) (mice [2])	Tail Flick .5 hr (percentage of analgesia response) (mice [2])	Tail Pinch 2 hr (percentage of mice showing analgesia) (mice [3]; mouse, in vivo)	Tail Pinch .5 hr (percentage of mice showing analgesia) (mice [3]; mouse, in vivo)	Hot Plate 2 hr (percentage of mice showing analgesia) (mice [4])	Hot Plate .5 hr (percentage of mice showing analgesia) (mice [4])	Rat Jump 2 hr (current at which the animal first jumps) (Rats [5])	Rat Jump .5 hr (current at which the animal first jumps) (Rats [5])	loss of righting reflex (rats) (Rats [6])	rats died (Rats [6]; at 32 mg./kg.)	analgesic and tranquilizing effectiveness [7]	ED50 (mice [3]; Mus musculus, read-out: Tail Pinch ED50) [mg/kg]	toxicity [8]	Rat Jump .5 hr, second value printed in parentheses (Rats [5])	Amphetamine Antagonism Activity (dosage approximately neutralizing the amphetamine effect) (Rats [9]) [mg/kg]	Tail Pinch ED50 (mice [3]; mouse, in vivo) [mg/kg]
COc1ccc(Cl)c2c1CCC(CN1CCC(C(=O)N3CCCC3)CC1)=C2	1/5	0	25	0	0	0	25	1.2	1.2								
COc1ccc(Cl)c2c1CCC(CN1CCC(C(=O)N3CCCCC3)CC1)=C2		0	40	0	0	0	20	1.2	1.6	2/5							
COc1ccc(Cl)c2c1CCC(CN1CCC(NC(=O)N3CCCCC3)CC1)=C2		0	0	0	0	0	0	1.2	1.2	1/5							
COc1ccc(Cl)c2c1CCC(CNCC1CC1)=C2		0	20	0	40	10	40	1.2	1.2		1/5						
COc1ccc(Cl)c2c1CCC(CN1CCC(OC(C)=O)(c3ccccc3)CC1)=C2 [1-(2-[8-Chloro-5-methoxy-3,4-dihydronaphthyl]methyl)-4-acetoxy-4-phenylpiperidine]												outstanding effectiveness					
CCC(=O)O[C@](Cc1ccccc1)(c1ccccc1)[C@H](C)CN(C)C [d-Propoxyphene, reference compound]		20	40			0	60		1.2				11.5	toxic			
COc1ccc(Cl)c2c1CCC(CN1CCC(OC(C)=O)(c3ccccc3)CC1)=C2 [drawing 79]		70	90	100	100	80	100	> 2.2	> 2.2								
COc1ccc(Cl)c2c1CCC(CN1CCCC1)=C2 [pyrrolidino, 1-(2-[3,4-Dihydro-8-chloro-5-methoxynaphthyl]methyl)pyrrolidine]		0	60	0	20	0	80	2.2	1.2						2.2		
Codeine Sulfate [reference compound]		50	100			60	80		> 2.2							> 32	15.4
